From patent US20110294794A1, “TREATMENT OF PROTEINOPATHIES USING A FARNESYL TRANSFERASE INHIBITOR” (Link Medicine Corporation, priority 2008, published 2011)
“Also recorded” adds a separate entry of the source.

How the values were obtained:
Assay type in all cases: in vivo, mouse
[1] = Pharmacokinetics of LNK-754-TS in mice, oral administration; conditions: 9 mg/kg, 20% beta-cyclodextrin
Source text: In the experimental data represented in Table 2A, a different method of drug delivery is used (oral) than in the experiment represented in FIG. 3. The best way to compare the relative coverage of the two delivery methods (oral and continuous infusion) is by comparing area-under-the-curve (AUC) values. We can compare the calculated AUC values for the continuous infusion oncology study presented in FIG. 3 and the AUC values associated with the synuclein model doses in the table. […] The AUCs of orally dosed LNK-754-TS at 0.9 mg/kg and at 0.09 mg/kg QD are 34.6 and […], respectively.
The pharmacokinetic profiles of LNK-754-TS and Zarnestra® were analyzed using methods known in the art. The results are shown in FIGS. 13-14 and the tables below.

[2] = system: APP/PS1 transgenic mice; experiment: Morris water maze in APP/PS1 transgenic mice; conditions: 0.9 mg/kg once every 24 hours
Experimental: Animals and treatments: Male and female human WT alpha-synuclein over-expressing transgenic mice^32 at 6 months of age were given vehicle (10% beta-cyclodextrin) or LNK-754-TS (0.09, 0.9 and 9 mg/kg) per oral gavage twice daily for 3 months or animals at 7 months of age were given vehicle (2.5% beta-cyclodextrin) or LNK-754-TS (2 mg/kg) once every three days for 3 months. Male and female TAU transgenic mice expressing TAU441 bearing the missense mutations V337M^50 and R406W under the control of the murine Thy-1 promoter with a CB6xC57BL/6 background were 5 months old at the time when the oral treatment for three months with LNK-754-TS (0.9 and 0.09 mg/kg) as well as vehicle (2.5% beta-cyclodextrin) was started. Female human APP/PS1 (APP (London V7171)/PS1(A246E)) over-expressing transgenic mice were treated with LNK-754-TS (0.9 mg/kg) or vehicle (2.5% beta-cyclodextrin) for 2 months or 12 days.
Morris water maze (MWM) analysis of cognitive performance: In APP/PS1 transgenic animals, swimming behavior in a Morris Water Maze was videotaped and analyzed (Ethovision, Noldus, Wageningen, Netherlands). For mice, a place navigation test was used to locate the hidden platform in five blocks of three trials over three consecutive days. […] The time each mouse needed for location of the platform was measured. […] The time and path length each rat needed to locate the platform was measured. […]

[3] = system: TAU441 transgenic mice; experiment: Porsolt forced swim task in TAU441 transgenic mice
Source text: Tests relevant to depression-like behaviors in rodents are primarily stress-induced reductions in avoidance or escape, termed behavioral despair. One of the most widely used animal tests for depression is the Porsolt forced swim task (Porsolt et al., Arch. Int. Pharmacodyn. Ther. 229(2):327-36, 1977; Porsolt et al., Eur. J. Pharmacol. 47(4):379-91, 1978). This study was designed to evaluate the effects of treatment with LNK-754 on behavior of TAU441 transgenic mice. At start of the treatment, the animals were 5 months old. Untreated non-transgenic animals of the same age were tested and sacrificed serving as the baseline group. Mice received vehicle or LNK-754-TS at a dose of 0.09 mg per kg, 7 days a week for 90 days. In the last week of the treatment period and before sacrifice, mice were evaluated using the Porsolt forced swim task (FIG. 10B).

[4] = system: Aβ; experiment: Aβ pathology in APP/PS1 transgenic mice (6E10, Thioflavin-S, ELISA); conditions: 0.9 mg/kg once every 24 hr, two months
Source text: Immunohistochemistry and quantification of stained cells: For evaluation of α-synuclein immunoreactivity (IR), 5 sagittal cryo-cut sections (10 μm slice thickness) from five different layers were used for counting of IR cells in the cortex and hippocampus. Brain sections were stained with a monoclonal human α-synuclein specific antibody (Alexis®; Cat# 804-258-L001; dilution 1:5), followed by a secondary Ab Cy 2-Goat Anti-Rat (Jackson ImmunoResearch®; dilution 1:200). IR positive cells were quantified using specialized image analysis software (Image Pro Plus, version 4.5.1.29). […] Images were evaluated with ImageProPlus (version 6.2) image analysis software. For APP/PS1 transgenic animals sagittal hemisections (40 μm) were collected and processed for Aβ immunohistochemistry using an 6E10 antibody, Thioflavin-S staining Primary antibodies were detected by the ABC method.
ELISA quantification of α-Synuclein in the α-Synuclein transgenic animals: Brain homogenate was centrifuged and the supernatant saved as fraction F1. […] Raw absorbance (405 nm) was then normalized to the total protein concentration of each sample. […] To quantify the amount of human Aβ-40 and Aβ-42, ELISA kits were used (The Genetics Company, Zurich, Switzerland). […]

[5] = 0.09 mg/kg once every 24 hr, 90 days

## C#Cc1cccc(-c2cc(=O)n(C)c3ccc([C@](O)(c4ccc(Cl)cc4)c4cncn4C)cc23)c1 [LNK-754-TS, (R)-6-[(4-chlorophenyl)-hydroxyl-(1-methyl-1-H-imidazol-5-yl)-methyl]-4-(3-ethynylphenyl)-1-methyl-2-(1H)-quinonlinone (2S,3S)-dihydroxybutanedioate]
[1]; BID day 1
  Cmax: 1385 ng/mL
[1]; BID day 5
  Cmax: 1485 ng/mL
[2]; 12 days
  cognitive performance in Morris water maze vs. vehicle: significant cognitive improvement
[2]; two months
  cognitive performance in Morris water maze vs. vehicle: performed significantly better; also recorded: significant cognitive improvement
[3]; 0.09 mg/kg once every 24 hours
  depressed phenotype: significantly ameliorated
[3]; [5]
  floating behavior vs. vehicle: significantly less; also recorded: decreasing; also recorded: decreased
  forced swim behavior compared with non-transgenic mice: behaved similar to non-transgenic mice; also recorded: behaved similarly to non-tg mice; also recorded: levels equivalent to that seen in non-transgenic mice
  struggling behavior vs. vehicle: higher percentage; also recorded: increasing; also recorded: significantly increased
[4]
  levels of Aβ40/Aβ42 extracted from whole brain fractions (Elisa): no statistically significant changes
  number of Aβ (6E10) immunoreactive plaques in the subiculum vs. vehicle: lesser, but still significant, effect; also recorded: significant decrease
